Experimental data from publication PMC9727182, “Identification of pharmacokinetic markers for safflower injection using a combination of system pharmacology, multicomponent pharmacokinetics, and quantitative proteomics study” (Frontiers in Pharmacology, 2022).
“And” between values parts separate entries of the source, which are not always exact repeats. Equal values may be shown once. Blank lines part the entries; values can stand above or below the molecule they belong to.

Tests used:
[1] = test system: H9c2 cardiomyocytes injured by H2O2; assay: Protection of cardiomyocytes injured by H2O2 (MTT); type: cell-based; conditions: for cell viability vs. model group: pretreated 24 h, 250 μM H2O2 2 h
Experimental: H9c2 cardiomyocytes obtained from Cell Bank of the Chinese Academy of Sciences (Shanghai, China) were cultured in DMEM (high glucose) supplemented with 1% P/S and 15% FBS in 5% CO2 at 37°C. The cells were collected with 0.25% trypsin, followed by re-seeding in 96-well multiplates with a density of 5×10^3 cells per well. The cell experiments were grouped as follows: normal group, model group (H2O2), administration groups and positive control groups (N-Acetyl-L-cysteine, NAC). […] After that, cells were incubated with 0.5 mg/ml of MTT for 4 h under standard condition, followed by addition of 150 µl DMSO into every well. The cell supernatants were finally removed and the optical density (OD) was recorded at 570 nm using a microplate reader (Thermo Fisher Scientific, United States). The protection rate of the compounds on H9c2 cardiomyocytes was calculated as (OD valueadministration group (or NAC group)-OD valuemodel group)/(OD valuenormal group-OD valuemodel group) ×100%.

[2] = Multicomponent pharmacokinetics in rat plasma after i.v. safflower injection (SI); conditions: for AUC(0-inf) / AUC(0-t) / Cmax / MRT inf / MRT last / Vd / clearance / half-life: male, Sprague-Dawley, rat, iv; for detected mean maximum plasma concentration: rats, after administration of 4 ml/kg of SI
Experimental: The animal experiments were approved by the Animal Care and Use Committee of the College of Animal Science (College of Bee Science), Fujian Agriculture and Forestry University (Approval Number: PZCASFAFU21012). 250 ± 20 g of male Sprague-Dawley (SD) rats were provided by Lab Animal Center in Fujian Medical University (Fuzhou, China).
Ten rats were divided into three groups (Low dose group, n = 4; medium and high groups, n = 3, respectively). […] For each rat, 2 ml of physiological saline was supplemented after 30 min sampling via intraperitoneal injection. The plasma samples were obtained by centrifugation at 3,000 rpm for 10 min and stored at −20°C until analysis.
Clear supernatant (5 μl) was injected into HPLC-MS for bioanalysis.
The sample was separated on a RD-C18 column (4.6 mm × 50 mm, 3.5 μm, Zhongpu Develop, China). The mobile phase incudes water with 0.1% acetic acid (A) and acetonitrile (B). […] The column temperature, flow rate and injection volume were set at 30°C, 0.5 ml/min and 5 μl, respectively.
Non-compartmental model was used to calculate the PK parameters by DAS 3.0 software (Chinese Pharmacologic Society, Beijing, China). A single-tailed t-test was carried out in the study.

[3] = Stability in diluted SI at room temperature; conditions: analyzed at 0, 2, 4, 8, 12, 24, and 48 h
[4] = Stability of 6 compounds of SI in rat plasma; conditions: for 10h in auto-sampler vials RE: extracted rat plasma; for 6h at room temperature RE / Freeze-thaw stability (three cycles) RE / Long-term stability (-80℃,15 days) RE: rat plasma
From the text: The LC-MS method was validated by linearity, limits of detection (LOD), limits of quantification (LOQ), precision, accuracy, extraction recovery, matrix effect and stability of the 6 ingredients in rat plasma. Calibration curves were plotted using weighted linear regression of the peak area ratio of analyte to the IS against the corresponding nominal concentration of the analyte. LOD and LOQ were defined as the detectable concentration at which the ratio of signal to noise was more than 3 and 10, respectively. Intra- and inter-day accuracy and precision were assessed by detecting quality control (QC) samples using five replicates of rat samples at three concentration levels on one or three validation days, respectively. Accuracy and precision were expressed by relative error (RE) and relative standard deviation (RSD), respectively. The extraction recovery and matrix effect of the 6 components at above-mentioned three concentration levels were determined. Stability was assessed under the condition of placing un-treated plasma samples at room temperature for 6 h, and extracted plasma samples in auto-sampler for 10 h, as well as placing plasma samples within freeze-thaw three cycles and at −80 °C for 15 days.

[5] = test system: H9c2 cardiomyocytes injured by H2O2; assay: TMT quantitative proteomics of H2O2-injured cardiomyocytes; type: cell-based; conditions: 168 μM
Experimental: The procedures for cell culture, group and administration are similar to those in “2.7. […] Briefly, the difference is that H9c2 cells were seeded and cultured in a culture flask with a bottom area of 25 cm^2 with a density 1×10^5 cells/ml. After treatment, about 3×10^7 cells per group were collected for the next quantitative proteomics investigation, which was done by Jingjie PTM Biolabs (Hangzhou, China). All the procedures for quantitative proteomics can be found in the section of “5. Quantitative proteomics” of the Supplementary Material.
The quantitative proteomics study was carried out according to our previous report ([Li et al., 2022]). Relative quantitative values of proteins in two samples were compared via t-test. […] The identified difference proteins between groups were subjected further to principal component analysis (PCA). […] The subcellular structure location was analyzed using these proteins as objectives.

[6] = 1 h after administration (2 ml/kg of SI), preliminary test

SMILES: COc1cc(/C=C/CO)cc(OC)c1O[C@@H]1O[C@H](CO)[C@@H](O)[C@H](O)[C@H]1O [SYR, syringin]
cell viability vs. model group ([1]; 5 μM): higher cell viability than the model group
cell viability vs. model group ([1]; 10 μM): higher cell viability than the model group
anti-H2O2 injury effect (protection rate) ([1]; 1, 5 and 10 μM): concentration-dependent
detection in rat plasma [2, 6]: can be detected
systematic exposure of SYR lower than that of HSYA ([2]; after administration of SI): over 10 times
AUC(0-inf) ([2]; in vivo, 1 ml/kg): 116 ± 70.5 ng·h/mL
AUC(0-t) ([2]; in vivo, 1 ml/kg): 101 ± 57.4 ng·h/mL
Cmax ([2]; in vivo, 1 ml/kg): 260 ± 59.4 ng/mL
MRT inf ([2]; in vivo, 1 ml/kg): 22.8 ± 9.6 min
MRT last ([2]; in vivo, 1 ml/kg): 16.2 ± 6 min
Vd ([2]; in vivo, 1 ml/kg): 0.21 ± 0.07 L/kg
clearance ([2]; in vivo, 1 ml/kg): 11.5 mL/min/kg
half-life ([2]; in vivo, 1 ml/kg): 15 ± 5.4 min
AUC(0-inf) ([2]; in vivo, 2 ml/kg): 368 ± 78.7 ng·h/mL
AUC(0-t) ([2]; in vivo, 2 ml/kg): 363 ± 81.5 ng·h/mL
Cmax ([2]; in vivo, 2 ml/kg): 465 ± 42.9 ng/mL
MRT inf ([2]; in vivo, 2 ml/kg): 45 ± 8.4 min
MRT last ([2]; in vivo, 2 ml/kg): 41.4 ± 4.2 min
Vd ([2]; in vivo, 2 ml/kg): 0.31 ± 0.2 L/kg
clearance ([2]; in vivo, 2 ml/kg): 5.67 mL/min/kg
half-life ([2]; in vivo, 2 ml/kg): 36.6 ± 15 min
AUC(0-inf) ([2]; in vivo, 4 ml/kg): 592 ± 96.6 ng·h/mL
AUC(0-t) ([2]; in vivo, 4 ml/kg): 586 ± 94.4 ng·h/mL
Cmax ([2]; in vivo, 4 ml/kg): 925 ± 38.5 ng/mL
MRT inf ([2]; in vivo, 4 ml/kg): 42.6 ± 13.8 min
MRT last ([2]; in vivo, 4 ml/kg): 40.2 ± 12.6 min
Vd ([2]; in vivo, 4 ml/kg): 0.31 ± 0.11 L/kg
clearance ([2]; in vivo, 4 ml/kg): 6.83 mL/min/kg
half-life ([2]; in vivo, 4 ml/kg): 31.8 ± 13.8 min
detected mean maximum plasma concentration [2]: 0.93 μg/mL and 2.5 μM
Stability RSD [3]: 2.76%
10h in auto-sampler vials RE ([4]; spiked 40 ng/mL): -12.50%
10h in auto-sampler vials RE ([4]; spiked 400 ng/mL): 1.61%
10h in auto-sampler vials RE ([4]; spiked 10000 ng/mL): 1.41%
6h at room temperature RE ([4]; spiked 40 ng/mL): -2.50%
Freeze-thaw stability (three cycles) RE ([4]; spiked 40 ng/mL): 1.50%
Long-term stability (-80℃,15 days) RE ([4]; spiked 40 ng/mL): -9.50%
6h at room temperature RE ([4]; spiked 400 ng/mL): 3.65%
Freeze-thaw stability (three cycles) RE ([4]; spiked 400 ng/mL): 2.65%
Long-term stability (-80℃,15 days) RE ([4]; spiked 400 ng/mL): 0.30%
6h at room temperature RE ([4]; spiked 10000 ng/mL): 1.55%
Freeze-thaw stability (three cycles) RE ([4]; spiked 10000 ng/mL): 2.30%
Long-term stability (-80℃,15 days) RE ([4]; spiked 10000 ng/mL): 0.98%
proteins downregulated vs. M group ([5]; fold change ≤1/1.5, p <0.05): 231 proteins
proteins upregulated vs. M group ([5]; fold change ≥1.5, p <0.05): 131 proteins
KEGG pathway regulation ([5]; vs. M group): downregulated the ribosome pathway and upregulated the lysosome pathway
changed protein expression located at the cytoplasm ([5]; vs. M group): 42.54%
changed protein expression located at the nucleus ([5]; vs. M group): 30.39%

detection in rat plasma [2, 6]: can be detected
detection in rat plasma ([2]; behind 15 min after i.v. low dose administration (1 ml/kg of SI)): can’t be detected
AUC(0-inf) ([2]; plasma, 2 ml/kg): 23.4 ± 5.21 ng·h/mL
AUC(0-t) ([2]; plasma, 2 ml/kg): 20.1 ± 4.4 ng·h/mL
Cmax ([2]; plasma, 2 ml/kg): 44.7 ± 5.13 ng/mL
MRT inf ([2]; plasma, 2 ml/kg): 40.2 ± 6.6 min
MRT last ([2]; plasma, 2 ml/kg): 25.8 ± 2.4 min
Vd ([2]; plasma, 2 ml/kg): 0.35 ± 0.04 L/kg
clearance ([2]; plasma, 2 ml/kg): 8.83 mL/min/kg
half-life ([2]; plasma, 2 ml/kg): 28.8 ± 6.6 min
AUC(0-inf) ([2]; plasma, 4 ml/kg): 44 ± 45.2 ng·h/mL
AUC(0-t) ([2]; plasma, 4 ml/kg): 35.2 ± 31.1 ng·h/mL
Cmax ([2]; plasma, 4 ml/kg): 74.3 ± 2.52 ng/mL
MRT inf ([2]; plasma, 4 ml/kg): 31.8 ± 31.8 min
MRT last ([2]; plasma, 4 ml/kg): 19.2 ± 15 min
Vd ([2]; plasma, 4 ml/kg): 0.34 ± 0.09 L/kg
clearance ([2]; plasma, 4 ml/kg): 16.5 mL/min/kg
half-life ([2]; plasma, 4 ml/kg): 23.4 ± 21 min
detected mean maximum plasma concentration [2]: 0.074 μg/mL and 0.61 μM
Stability RSD [3]: 4.11%
10h in auto-sampler vials RE ([4]; spiked 40 ng/mL): -2.50%
10h in auto-sampler vials RE ([4]; spiked 400 ng/mL): 0.63%
10h in auto-sampler vials RE ([4]; spiked 10000 ng/mL): 4.23%
Freeze-thaw stability (three cycles) RE ([4]; spiked 40 ng/mL): 1.00%
Long-term stability (-80℃,15 days) RE ([4]; spiked 40 ng/mL): 14.50%
6h at room temperature RE ([4]; spiked 400 ng/mL): -3.70%
Freeze-thaw stability (three cycles) RE ([4]; spiked 400 ng/mL): 4.05%
Long-term stability (-80℃,15 days) RE ([4]; spiked 400 ng/mL): 0.45%
6h at room temperature RE ([4]; spiked 10000 ng/mL): -3.91%
Freeze-thaw stability (three cycles) RE ([4]; spiked 10000 ng/mL): -3.10%
Long-term stability (-80℃,15 days) RE ([4]; spiked 10000 ng/mL): 3.02%
SMILES: O=Cc1ccc(O)cc1 [p-HBA, p-hydroxybenzaldehyde]
protection ([1]; 0.61 μM, preliminary test at maximum detected plasma concentration): absence of protection
